Data on 1 molecule can be found in patent publication US20260345517A1, “DOSAGE REGIMENS FOR TREATING STARGARDT DISEASE” (Alkeus Pharmaceuticals, Inc., priority 2024, published 2026).

A short description of data set [1]: TEASE-3: plasma gildeuretinol (replacement of plasma vitamin A). Format: in vivo, human. The following applies: 14 mg daily, after the first two months, all three participants. The protocol: The tolerability and effects of gildeuretinol acetate in Stargardt Disease (Clinical trial group 3 also known as TEASE-3) study was an open-label, multicenter, case control study designed to evaluate the efficacy and safety of gildeuretinol acetate on the progression of Stargardt disease in asymptomatic individuals. The trial was conducted at multiple sites in the United States.
To assess the safety and efficacy of gildeuretinol acetate in preventing vision loss in asymptomatic individuals, gildeuretinol acetate 14 mg capsules was administered to individuals showing early signs of retinal damage while maintaining approximately 20/20 vision and no subjective loss of vision. […] Based on the above family history and clinical observations, the individuals were likely to develop retinal lesions, loss of photoreceptors, drops in retinal sensitivity, loss of visual acuity, indicating the onset of symptoms, i.e. a progression to the symptomatic phase, including vision loss within two years, mirroring the progression observed in their older siblings.
Patients received gildeuretinol acetate 14 mg capsules, to be taken orally once daily. Trial visits occurred every 6 months approximately following screening and treatment start visits.

A short description of data set [2]: Open-label multiple dose pharmacokinetic study in healthy volunteers (percentage of deuterated vitamin A in plasma, LC/MS). The following applies: fasting. Format: in vivo, human. Here is the method: Study Design: This was an open-label, non-randomized, multiple dose study in healthy volunteers aged 21 to 70 years of age (inclusion criteria). Subjects who met all entrance criteria at screening were invited to receive the study medication. There were six treatment arms: 2 mg/day, 3.5 mg/day, 5 mg/day, 7 mg/day, 10 mg/day and 14 mg/day gildeuretinol acetate. For the four lower dose groups, the dose regimen was one capsule per day, orally, to be taken at home, preferably in the evening unless a different time was preferred by the subject. For the two highest doses, the dose regimen was two capsules per day, one in the morning and one in the evening, although subjects with a preference to take both capsules at once were offered to do so. After taking the 1st dose at the study site, subjects were invited to return two and four weeks after starting the treatment.
The clinical staff made periodic calls to monitor adverse events and ensure subject compliance. In addition, a text message was sent daily to remind subjects to take their medication. Subjects were instructed to avoid foods that contain large amounts of vitamin A (such as liver-based products), including supplements containing vitamin A, and to report their vitamin A intake by answering a daily text message diary. Fruits and vegetables were permitted without restriction.
Deuterated retinol (gildeuretinol) (“D3”) and non-deuterated retinol (“Do”) and other vitamin A metabolites were measured to calculate the percentage of deuterated vitamin A in plasma. For all treatment groups, plasma samples were collected at baseline, 14±1 days (“2 weeks”) and 28±1 days (“4 weeks”) after initiation of treatment. Blood samples were usually collected following at least 10 hours of fasting (including last gildeuretinol acetate intake), preferably in the morning. For the 7 mg/day and the 14 mg/day groups only, after the first and last dose, blood samples were collected every 4 hours for 24 hours. A liquid chromatography/mass spectrometry assay was used to measure the metabolite levels.
Table 2 provides % D3 Retinol (gildeuretinol, i.e. the percentage of deuterated retinol (gildeuretinol) over total retinol (as deuterated+non-deuterated) in plasma measured 12-24 hours following gildeuretinol acetate intake.
Pharmacokinetic Results (integrated levels over 24 hours post dosing): total vitamin A in plasma, both deuterated (gildeuretinol) and non-deuterated (retinol), was measured every 4 hours following administration of 7 mg or 14 mg at the first dose, and following administration of the 28th dose (4 weeks of daily treatment). The area under the curve (AUC) was calculated and the % deuterated % D3 of total vitamin A (as retinol and gildeuretinol) was computed as an average over 24 hours.

In the case of `CC1=C(/C=C/C(C)=C/C=C/C(C)=C/CO)C(C)(C)CCC1` [gildeuretinol, C20D3-retinol], the “replacement of plasma vitamin A (retinol + gildeuretinol) with gildeuretinol” value in data set [1] was found to be 80%. Moreover, the “% gildeuretinol over retinol + gildeuretinol in plasma” value (“% gildeuretinol” below) is 27% in data set [2] (2 mg/day, after 2 weeks of treatment); 31% in data set [2] (2 mg/day, after 4 weeks of treatment); 39% in data set [2] (3.5 mg/day, after 2 weeks of treatment); 46% in data set [2] (3.5 mg/day, after 4 weeks of treatment); 53% in data set [2] (5 mg/day, after 2 weeks of treatment); 51% in data set [2] (5 mg/day, after 4 weeks of treatment). Also, the “% gildeuretinol” value stood at 27% in data set [2] (7 mg/day, 24 hours post 1st dose); 55% in data set [2] (7 mg/day, after 2 weeks of treatment); 63% in data set [2] (7 mg/day, after 4 weeks of treatment); 66% in data set [2] (10 mg/day, after 2 weeks of treatment); 72% in data set [2] (10 mg/day, after 4 weeks of treatment); 41% in data set [2] (14 mg/day, 24 hours post 1st dose). For the same molecule, the “% gildeuretinol” value in data set [2] (14 mg/day, after 2 weeks of treatment) worked out at 64%; in data set [2] (14 mg/day, after 4 weeks of treatment) it was 79%.
